Experimental data from patent publication US20050020516A1, “Effects of combined administration of farnesyl transferase inhibitors and signal transduction inhibitors” (Whitehead Institute for Biomedical Research, priority 2000, published 2005).

Experiments:
BaF3-BCR/ABL cells = assay: Soft agar colony formation of BaF3-BCR/ABL cells; type: cell-based, murine; conditions: Mus musculus, 240 h; BaF3-BCR/ABL cells in soft agar, colonies counted day 10; read-out: IC50, inhibition of soft agar colony number
[1] = test system: STI-571 resistant BaF3-BCR/ABL cells; assay: Proliferation in liquid culture, viable cells by dye exclusion; type: cell-based, murine; conditions: 0.5 or 1.0 μM STI-571 or increasing concentrations of SCH66336
Procedure: Viable cells were assessed at daily intervals by dye exclusion.

[2] = test system: STI-571 resistant K562 cells; assay: Proliferation in liquid culture; type: cell-based, human; conditions: STI-571 resistant K562, similar manner as parental line
[3] = test system: STI-571 resistant AR230 cells; assay: Proliferation in liquid culture; type: cell-based, human; conditions: STI-571 resistant AR230, similar manner as parental line
[4] = test system: STI-571 resistant LAMA84 cells; assay: Proliferation in liquid culture; type: cell-based, human; conditions: STI-571 resistant LAMA84, similar manner as parental line
[5] = test system: STI-571 resistant hematopoietic progenitors from CML patients; assay: Methylcellulose hematopoietic colony assay of primary cells from CML patients relapsed on STI-571; type: cell-based; conditions: Homo sapiens, read-out: IC50, colony formation of STI-571 resistant hematopoietic progenitors
Procedure: Numbers are normalized to control (DMSO) and are presented as means +/−S.D. of duplicate plates.
Low density mononucleocytes were isolated from either fresh or cryo-preserved peripheral blood using Lymphoprep (Nycomed, Oslo, Norway). […] All clonogenic assays were performed in duplicate.

[6] = test system: STI-571 sensitive or resistant BCR/ABL positive cell lines (BaF3-BCR/ABL, K562, LAMA-84, AR230); assay: Cell viability by trypan blue dye exclusion; type: cell-based; conditions: SCH66336 alone at concentrations up to 5 μM, STI-571 sensitive or resistant cell lines
Procedure: FIGS. 9A-9E are graphs showing that SCH66336 and STI571 in combination induce apoptosis in STI571 resistant cells. […] Viability of cells was assessed at daily intervals by dye exclusion.

[7] = test system: parental BaF3-BCR/ABL cells; assay: Caspase-3 immunoblotting (cleavage of procaspase-3); conditions: protein lysates of treated cells
Procedure: (§1) Some cells were lysed and subjected to immunoblotting with caspase-3 antibody (FIG. 8A) or analyzed for annexin V staining (FIG. 8B) by FACS using the Apo-Alert kit (Clontech).
Cells were washed in cold PBS and lysed in NP-40 lysis buffer (1% NP-40, 150 mM NaCl, 20 mM Tris (pH 7.4), 10% glycerol, 10 mM NaVO3, 1 mM ZnCl2, 1 mM MgCl2, and 2 mM PMSF). Approximately 50 ug of protein were separated by SDS-PAGE and electrophoretically transferred to nitrocellulose membrane using standard protocols. Membranes were incubated with primary and secondary antibodies in TBST buffer (20 mM Tris-HCl [pH 7.4], 500 mM NaCl, 0.01% Tween 20) containing 5% dry milk. Immunoreactivity was detected by enhanced chemiluminescence.

[8] = test system: parental BaF3-BCR/ABL cells; assay: Apoptosis by annexin V staining (ApoAlert Annexin V kit, FACS); conditions: 2.0 uM SCH66336, 48 hours
Procedure: as §1
Apoptosis was measured in cells after incubation with drugs by staining for annexin-positive cells using the ApoAlert Annexin V kit (Clontech, Palo Alto, Calif.). Flow cytometry analysis was performed using Cell Quest (Becton Dickinson, Franklin Lakes, N.J.).

[9] = test system: STI-571 resistant clone of a BaF3-BCR/ABL; assay: Soft agar colony formation of STI-571 resistant BaF3-BCR/ABL clone; conditions: STI-571 resistant BaF3-BCR/ABL clone compared with parental cells
Text: Macroscopic colonies were counted in duplicate plates on day 10. In some cases colony numbers were normalized by dividing the number of colonies under a given condition by the number of colonies formed in the presence of no drug (DMSO alone).

NC(=O)N1CCC(CC(=O)N2CCC([C@H]3c4ncc(Br)cc4CCc4cc(Cl)cc(Br)c43)CC2)CC1 [SCH66336]
IC50 (BaF3-BCR/ABL cells): ~100 nM
effect on growth / proliferation [1]: dose-dependent inhibition of proliferation
effect on proliferation [2]: inhibits the proliferation
effect on proliferation [3]: inhibits the proliferation
effect on proliferation [4]: inhibits the proliferation
IC50 [5]: 250 to 500 nM
effect on cell viability [6]: little effect on cell viability
levels of active caspase-3 (immunoblot) [7]: low levels of active caspase-3
levels of annexin V staining [8]: Low levels of annexin V staining
effect on soft agar colony formation of STI-571 resistant clone [9]: as sensitive, if not more so
